In US20160362408A1 (Bayer Pharma Aktiengesellschaft, priority 2013, published 2016):
Where a name gives a salt, the structure may show the parent alone.

target: T1, recombinant guanylate cyclase reporter cell line (Rattus norvegicus, UniProt P19686+P20595); assay: Effect on a recombinant guanylate cyclase reporter cell line; assay type: cell-based; details: MEC = minimum effective concentration; in some cases mean values for individual determinations
T1 construct: expressed in transfected cells
T1 sequence (P19686 1-690): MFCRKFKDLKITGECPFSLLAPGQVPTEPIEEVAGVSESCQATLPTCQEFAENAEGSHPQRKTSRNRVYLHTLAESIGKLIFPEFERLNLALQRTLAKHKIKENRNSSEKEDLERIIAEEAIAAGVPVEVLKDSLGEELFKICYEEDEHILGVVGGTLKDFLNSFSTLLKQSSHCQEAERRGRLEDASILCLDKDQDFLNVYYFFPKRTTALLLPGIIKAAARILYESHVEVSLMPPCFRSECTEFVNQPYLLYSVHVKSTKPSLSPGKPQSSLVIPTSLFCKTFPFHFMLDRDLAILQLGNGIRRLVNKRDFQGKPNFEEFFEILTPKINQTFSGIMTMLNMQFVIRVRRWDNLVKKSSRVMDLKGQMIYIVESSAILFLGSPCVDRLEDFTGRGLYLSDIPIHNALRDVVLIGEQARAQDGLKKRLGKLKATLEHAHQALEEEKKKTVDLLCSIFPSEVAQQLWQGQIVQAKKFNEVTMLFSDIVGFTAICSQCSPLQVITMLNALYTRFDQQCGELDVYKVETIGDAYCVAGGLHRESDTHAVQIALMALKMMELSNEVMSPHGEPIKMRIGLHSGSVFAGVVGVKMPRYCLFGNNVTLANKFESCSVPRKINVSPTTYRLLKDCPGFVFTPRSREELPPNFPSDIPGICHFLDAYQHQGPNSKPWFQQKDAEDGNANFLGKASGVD
T1 sequence (P20595 1-619): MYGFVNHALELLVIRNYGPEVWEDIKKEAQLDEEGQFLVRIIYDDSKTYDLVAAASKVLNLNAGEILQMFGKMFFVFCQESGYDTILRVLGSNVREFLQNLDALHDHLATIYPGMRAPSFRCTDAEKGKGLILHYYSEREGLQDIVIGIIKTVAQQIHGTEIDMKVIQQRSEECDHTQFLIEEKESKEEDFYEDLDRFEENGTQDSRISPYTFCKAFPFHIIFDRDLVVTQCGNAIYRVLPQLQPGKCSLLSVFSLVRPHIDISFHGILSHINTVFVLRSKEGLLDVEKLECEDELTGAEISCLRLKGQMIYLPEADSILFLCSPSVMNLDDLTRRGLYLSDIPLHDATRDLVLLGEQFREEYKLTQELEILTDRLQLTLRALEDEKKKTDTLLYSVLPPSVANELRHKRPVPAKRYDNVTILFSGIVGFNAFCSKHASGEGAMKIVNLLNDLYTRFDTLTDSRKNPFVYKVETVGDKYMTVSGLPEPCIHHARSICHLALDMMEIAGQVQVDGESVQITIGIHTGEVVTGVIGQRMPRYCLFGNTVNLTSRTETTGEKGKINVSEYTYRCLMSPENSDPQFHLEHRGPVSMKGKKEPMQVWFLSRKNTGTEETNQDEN
Summary of the method: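 Compounds tested in a recombinant guanylate cyclase reporter cell line per a published method. Potency expressed as minimum effective concentration (MEC), sometimes as mean of individual determinations.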

| SMILES | MEC [µM] |
| --- | --- |
| Cc1cc(OCc2c(F)cccc2F)c2nc(C)c(C(=O)Nc3ccc(F)cc3CN)n2c1 [Example 113, N-[2-(Aminomethyl)-4-fluorophenyl]-8-[(2,6-difluorobenzyl)oxy]-2,6-dimethylimidazo[1,2-a]pyridine-3-carboxamide] | 0.3 |
| Cc1nc2c(OCc3c(F)cccc3F)cccn2c1C(=O)Nc1n[nH]c2ccc(C(F)(F)F)cc12 [Example 114, 8-[(2,6-Difluorobenzyl)oxy]-2-methyl-N-[5-(trifluoromethyl)-1H-indazol-3-yl]imidazo[1,2-a]pyridine-3-carboxamide] | 0.3 |
| Cc1nc2c(OCc3c(F)cccc3F)cccn2c1C(=O)Nc1n[nH]c2ccc(F)cc12 [Example 115, 8-[(2,6-Difluorobenzyl)oxy]-N-(5-fluoro-1H-indazol-3-yl)-2-methylimidazo[1,2-a]pyridine-3-carboxamide] | 1.0 |
| Cc1nc2c(OCc3c(F)cccc3F)cccn2c1C(=O)Nc1c(C(F)(F)F)nn(CCO)c1C [Example 116, 8-[(2,6-Difluorobenzyl)oxy]-N-[1-(2-hydroxyethyl)-5-methyl-3-(trifluoromethyl)-1H-pyrazol-4-yl]-2-methylimidazo[1,2-a]pyridine-3-carboxamide] | 0.5 |
| Cc1nc2c(OCc3c(F)cccc3F)cc(Cl)cn2c1C(=O)Nc1c(C(F)(F)F)nn(CCO)c1C [Example 117, 6-chloro-8-[(2,6-difluorobenzyl)oxy]-N-[1-(2-hydroxyethyl)-5-methyl-3-(trifluoromethyl)-1H-pyrazol-4-yl]-2-methylimidazo[1,2-a]pyridine-3-carboxamide] | 0.1 |
| CCn1ccc(NC(=O)c2c(C)nc3c(OCc4c(F)cccc4F)cccn23)n1 [Example 121, 8-[(2,6-difluorobenzyl)oxy]-N-(1-ethyl-1H-pyrazol-3-yl)-2-methylimidazo[1,2-a] pyridine-3-carboxamide] | 1.0 |
| Cc1nc2c(OCc3c(F)cccc3F)cccn2c1C(=O)Nc1cc(C)n(C)n1 [Example 122, 8-[(2,6-difluorobenzyl)oxy]-N-(1,5-dimethyl-1H-pyrazol-3-yl)-2-methylimidazo[1,2-a] pyridine-3-carboxamide] | 3.0 |
| Cc1nc2c(OCc3c(F)cccc3F)cccn2c1C(=O)Nc1ccncc1C(F)(F)F [Example 123, 8-[(2,6-difluorobenzyl)oxy]-2-methyl-N-[3-(trifluoromethyl)pyridin-4-yl)imidazo[1,2-a]pyridine-3-carboxamide trifluoroacetate] | 1.0 |
| Cc1nc2c(OCC3CCCCC3)cccn2c1C(=O)Nc1cnn(CCO)c1 [Example 124, 8-(cyclohexylmethoxy)-N-[1-(2-hydroxyethyl)-1H-pyrazol-4-yl]-2-methylimidazo[1,2-a]pyridine-3-carboxamide] | 1.0 |
| Cc1ccnc(NC(=O)c2c(C)nc3c(OCc4c(F)cccc4F)cccn23)n1 [Example 126, 8-[(2,6-Difluorobenzyl)oxy]-2-methyl-N-(4-methylpyrimidin-2-yl)imidazo[1,2-a]pyridine-3-carboxamide] | 1.0 |
| Cc1nc2c(OCc3c(F)cccc3F)cccn2c1C(=O)Nc1cnn(CCN2CCC(F)(F)CC2)c1 [Example 127, 8-[(2,6-Difluorobenzyl)oxy]-N-{1-[2-(4,4-difluoropiperidin-1-yl)ethyl]-1H-pyrazol-4-yl}-2-methylimidazo[1,2-a]pyridine-3-carboxamide] | 1.0 |
| Cc1nc2c(OCc3c(F)cccc3F)cccn2c1C(=O)Nc1cnn(CCN2CCC(O)CC2)c1 [Example 130, 8-[(2,6-difluorobenzyl)oxy]-N-{1-[2-(4-hydroxypiperidin-1-yl)ethyl]-1H-pyrazol-4-yl}-2-methylimidazol[1,2-a] pyridine-3-carboxamide] | 10 |
| Cc1nc2c(OCc3c(F)cccc3F)cc(Cl)cn2c1C(=O)Nc1cnn(CCF)c1 [Example 141, 6-chloro-8-[(2,6-difluorobenzyl)oxy]-N-[1-(2-fluoroethyl)-1H-pyrazol-4-yl]-2-methylimidazo[1,2-a]pyridine-3-carboxamide] | 1.0 |

The remaining lines, values ahead:

| MEC [µM] | SMILES |
| --- | --- |
| 1.0 | Cc1nc2c(OCc3c(F)cccc3F)cccn2c1C(=O)Nc1cnn(C)c1 [Example 119, 8-[(2,6-difluorobenzyl)oxy]-2-methyl-N-(1-methyl-1H-pyrazol-4-yl)imidazo[1,2-a]pyridine-3-carboxamide] |
| 3.0 | Cc1nc2c(OCc3c(F)cccc3F)cccn2c1C(=O)Nc1cnn(CCN2CCCC2)c1 [Example 128, 8-[(2,6-difluorobenzyl)oxy]-2-methyl-N-{1-[2-(pyrrolidin-1-yl)ethyl]-1H-pyrazol-4-yl}imidazo [1,2-a]pyridine-3-carboxamide] |
| 10 | Cc1nc2c(OCc3c(F)cccc3F)cccn2c1C(=O)Nc1cnn(CCN2CCS(=O)(=O)CC2)c1 [Example 129, 8-[(2,6-difluorobenzyl)oxy]-N-{1-[2-(1,1-dioxidothiomorpholin-4-yl)ethyl]-1H-pyrazol-4-yl}-2-methylimidazo[1,2-a] pyridine-3-carboxamide] |
| 1.0 | Cc1nc2c(OCc3c(F)cccc3F)cccn2c1C(=O)Nc1cnn(CCN2CCOCC2)c1 [Example 132, 8-[(2,6-difluorobenzyl)oxy]-2-methyl-N-{1-[2-(morpholin-4-yl)ethyl]-1H-pyrazol-4-yl} imidazo[1,2-a]pyridine-3-carboxamide] |
| 10 | Cc1nc2c(OCc3c(F)cccc3F)cccn2c1C(=O)Nc1cnn(CCN2CCN(C)CC2)c1 [Example 133, 8-[(2,6-difluorobenzyl)oxy]-2-methyl-N-{1-[2-(4-methylpiperazin-1-yl)ethyl]-1H-pyrazol-4-yl)imidazo [1,2-a]pyridine-3-carboxamide] |
| 3.0 | Cc1nc2c(OCc3c(F)cccc3F)cccn2c1C(=O)Nc1cnn(CCN(C)C)c1 [Example 134, 8-[(2,6-difluorobenzyl)oxy]-N-{1-[2-(dimethylamino)ethyl]-1H-pyrazol-4-yl}-2-methylimidazol[1,2-a] pyridine-3-carboxamide] |
| 3.0 | Cc1nc2c(OCc3c(F)cccc3F)cccn2c1C(=O)Nc1cnn(CCS(C)(=O)=O)c1 [Example 135, 8-[(2,6-Difluorobenzyl)oxy]-2-methyl-N-{1-[2-(methylsulphonyl)ethyl]-1H-pyrazol-4-yl}imidazo[1,2-a]pyridine-3-carboxamide] |
| 10 | Cc1nc2c(OCc3c(F)cccc3F)cccn2c1C(=O)Nc1cnn(CCOC(N)=O)c1 [Example 138, 2-{4-[({8-[(2,6-Difluorobenzyl)oxy]-2-methylimidazo[1,2-a]pyridin-3-yl}carbonyl)amino]-1H-pyrazol-1-yl}ethyl carbamate] |
| 3.0 | Cc1nc2c(OCc3c(F)cccc3F)cccn2c1C(=O)Nc1cnn(CCOS(N)(=O)=O)c1 [Example 139, 2-{4-[({8-[(2,6-Difluorobenzyl)oxy]-2-methylimidazo[1,2-a]pyridin-3-yl}carbonyl)amino]-1H-pyrazol-1-yl}ethyl sulphamate trifluoroacetate] |
| 1.0 | Cc1nc2c(OCc3c(F)cccc3F)cccn2c1C(=O)Nc1cnn(CCF)c1 [Example 140, 8-[(2,6-Difluorobenzyl)oxy]-N-[1-(2-fluoroethyl)-1H-pyrazol-4-yl]-2-methylimidazo[1,2-a]pyridine-3-carboxamide] |
